In patent US10125097B2, “1- [1-(benzoyl)-pyrrolidine-2-carbonyl]-pyrrolidine-2-carbonitrile derivatives” (UNIVERSITAT DE BARCELONA, priority 2012, dated 2018):

System: MK-801-treated rodents
Test: Novel object recognition (NOR) task in MK-801 cognition impairment model
Format: in vivo, rodents (mice or rats)
Settings: 5 mg/Kg s.c.; MK-801 0.2 mg/kg i.p.; FIG. 1
Experimental: The new compounds were evaluated for their efficacy as cognition enhancers in a pharmacological model for cognitive impairment. The effects of the new compounds were evaluated in untreated and MK-801-treated rodents (mice or rats). MK-801 is a non-competitive antagonist of the N-Methyl-D-aspartate (NMDA) receptor which impairs animal performance in various learning and memory paradigms (Castellano C et al., Curr. Drug Targets 2001; 2:273-83; Riedel G et al., Behav. Brain Res. 2003; 140:1-47). MK-801 also produces various effects on rodent behavior, including deficits in sensory processing, hypermotility, stereotypy and ataxia. […]
The novel object recognition (NOR) task is based on the natural preference of rodents to explore novel objects (Ennaceur A et al., Behav. Brain Res. 1988; 31:47-59). […] The animals were then allowed to explore freely for 10 min, and the time spent exploring each object was recorded. […] An index of discrimination was calculated as follows: time spent exploring the new object minus time spent exploring the old object, divided by the total time exploring both objects, and multiplied by 100. […]

COc1cc(C(=O)N2CC(F)(F)C[C@H]2C(=O)N2CCC[C@H]2C#N)cc(OC)c1OCc1ccccc1 [Example 4, (S)-1-((2S)-1-(4-(benzyloxy)-3,5-dimethoxybenzoyl)-4,4-difluoropyrrolidine-2-carbonyl)pyrrolidine-2-carbonitrile]
Reversal of MK-801-induced memory impairment in the NOR test: able to reverse MK-801-induced memory impairment
